Results from BindingDB's records for doi:10.1016/j.bmcl.2009.08.049 (Genentech, 2009).

Target: Sonic hedgehog protein (Mus musculus, UniProt Q62226)
Assay: Inhibition of SHH in mouse C3H10T1/2 cells by Gli-luciferase reporter gene assay

Sequence of Sonic hedgehog protein (Q62226 25-198 limits assumed): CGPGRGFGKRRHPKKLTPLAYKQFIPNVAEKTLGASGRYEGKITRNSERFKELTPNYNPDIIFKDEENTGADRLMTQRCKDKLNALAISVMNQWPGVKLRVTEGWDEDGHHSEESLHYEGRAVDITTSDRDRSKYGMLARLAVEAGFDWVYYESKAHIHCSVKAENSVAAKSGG

IC50 [nM]	SMILES
120	CS(=O)(=O)c1cccc(C(=O)Nc2ccc(Cl)c(-c3ccccn3)c2)c1 [N-(4-chloro-3-(pyridin-2-yl)phenyl)-3-(methylsulfonyl)benzamide]
52	Cc1nc(C(F)(F)F)ccc1C(=O)Nc1ccc(Cl)c(-c2cnc3ccccc3n2)c1 [N-(4-chloro-3-(quinoxalin-2-yl)phenyl)-2-methyl-6-(trifluoromethyl)nicotinamide]
1500	O=C(Nc1ccc(Cl)c(-c2ccccn2)c1)c1cccc(Cl)c1 [3-chloro-N-(4-chloro-3-(pyridin-2-yl)phenyl)benzamide]
700	O=C(Nc1ccc(Cl)c(-c2ccccn2)c1)c1ccncc1 [N-(4-chloro-3-(pyridin-2-yl)phenyl)isonicotinamide]
1500	O=C(Nc1ccc(Cl)c(-c2ccccn2)c1)c1ccc(Cl)cc1 [4-chloro-N-(4-chloro-3-(pyridin-2-yl)phenyl)benzamide]
2400	Cc1nc(C(F)(F)F)ccc1C(=O)Nc1ccc(Cl)c(-c2ccncc2)c1 [N-(4-chloro-3-(pyridin-4-yl)phenyl)-2-methyl-6-(trifluoromethyl)nicotinamide]
140	Cc1nc(C(F)(F)F)ccc1C(=O)Nc1ccc(Cl)c(C(=O)Nc2ccccc2)c1 [N-(4-chloro-3-(phenylcarbamoyl)phenyl)-2-methyl-6-(trifluoromethyl)nicotinamide]
256	Cc1c[nH]c(-c2cc(NC(=O)c3ccc(C(F)(F)F)nc3C)ccc2Cl)n1 [N-(4-chloro-3-(5-methyl-1H-imidazol-2-yl)phenyl)-2-methyl-6-(trifluoromethyl)nicotinamide]
70	Cc1nc(C(F)(F)F)ccc1C(=O)Nc1ccc(Cl)c(-c2nc3ccccc3s2)c1 [N-(3-(benzo[d]thiazol-2-yl)-4-chlorophenyl)-2-methyl-6-(trifluoromethyl)nicotinamide]
500	Cc1nc(C(F)(F)F)ccc1C(=O)Nc1ccc(Cl)c(-c2cc3ccccc3[nH]2)c1 [N-(4-chloro-3-(1H-indol-2-yl)phenyl)-2-methyl-6-(trifluoromethyl)nicotinamide]
3000	O=C(Nc1ccc(Cl)c(-c2ccccn2)c1)c1ccccn1 [N-(4-chloro-3-(pyridin-2-yl)phenyl)picolinamide]
600	O=C(Nc1ccc(Cl)c(-c2ccccn2)c1)c1cccnc1 [N-(4-chloro-3-(pyridin-2-yl)phenyl)nicotinamide]
40	CS(=O)(=O)c1ccc(C(=O)Nc2ccc(Cl)c(-c3ccccn3)c2)cc1 [N-(4-chloro-3-(pyridin-2-yl)phenyl)-4-(methylsulfonyl)benzamide]
80	Cc1nc(C(F)(F)F)ccc1C(=O)Nc1ccc(Cl)c(-n2cc3ccccc3n2)c1 [N-(4-chloro-3-(2H-indazol-2-yl)phenyl)-2-methyl-6-(trifluoromethyl)nicotinamide]
12	Cc1nc(C(F)(F)F)ccc1C(=O)Nc1ccc(Cl)c(-c2nc3ccccc3[nH]2)c1 [N-(3-(1H-benzo[d]imidazol-2-yl)-4-chlorophenyl)-2-methyl-6-(trifluoromethyl)nicotinamide]
450	Cc1nc(C(F)(F)F)ccc1C(=O)Nc1ccc(Cl)c(-n2cccn2)c1 [N-(4-chloro-3-(1H-pyrazol-1-yl)phenyl)-2-methyl-6-(trifluoromethyl)nicotinamide]
170	Cc1nc(C(F)(F)F)ccc1C(=O)Nc1ccc(Cl)c(-c2cc3ccccn3n2)c1 [N-(4-chloro-3-(pyrazolo[1,5-a]pyridin-2-yl)phenyl)-2-methyl-6-(trifluoromethyl)nicotinamide]
1700	Cc1nc(C(F)(F)F)ccc1C(=O)Nc1ccc(Cl)c(-c2cnccn2)c1 [N-(4-chloro-3-(pyrazin-2-yl)phenyl)-2-methyl-6-(trifluoromethyl)nicotinamide]
200	Cc1nc(C(F)(F)F)ccc1C(=O)Nc1ccc(Cl)c(-c2cn3ccsc3n2)c1 [N-(4-chloro-3-(imidazo[2,1-b]thiazol-6-yl)phenyl)-2-methyl-6-(trifluoromethyl)nicotinamide]
800	O=C(Nc1ccc(Cl)c(-c2ccccn2)c1)c1ccccc1 [N-(4-chloro-3-(pyridin-2-yl)phenyl)benzamide]
130	Cc1ccc(C(=O)Nc2ccc(Cl)c(-c3ccccn3)c2)c(C)n1 [N-(4-chloro-3-(pyridin-2-yl)phenyl)-2,6-dimethylnicotinamide]
9	Cc1nc(C(F)(F)F)ccc1C(=O)Nc1ccc(Cl)c(-c2nc3ccccc3n2C)c1 [N-(4-chloro-3-(1-methyl-1H-benzo[d]imidazol-2-yl)phenyl)-2-methyl-6-(trifluoromethyl)nicotinamide]
42	Cc1nc(C(F)(F)F)ccc1C(=O)Nc1ccc(Cl)c(-c2ccccn2)c1 [N-(4-chloro-3-(pyridin-2-yl)phenyl)-2-methyl-6-(trifluoromethyl)nicotinamide]
550	Cc1nc(C(F)(F)F)ccc1C(=O)Nc1ccc(Cl)c(-c2ccn(C)n2)c1 [N-(4-chloro-3-(1-methyl-1H-pyrazol-3-yl)phenyl)-2-methyl-6-(trifluoromethyl)nicotinamide]
8000	Cc1nc(C(F)(F)F)ccc1C(=O)Nc1ccc(Cl)c(-c2ncccn2)c1 [N-(4-chloro-3-(pyrimidin-2-yl)phenyl)-2-methyl-6-(trifluoromethyl)nicotinamide]
4200	Cc1nc(C(F)(F)F)ccc1C(=O)Nc1ccc(Cl)c(-c2cc3ccccn3c2)c1 [N-(4-chloro-3-(indolizin-2-yl)phenyl)-2-methyl-6-(trifluoromethyl)nicotinamide]
9000	Cc1nc(C(F)(F)F)ccc1C(=O)Nc1ccc(Cl)c(-c2cc[nH]n2)c1 [N-(4-chloro-3-(1H-pyrazol-3-yl)phenyl)-2-methyl-6-(trifluoromethyl)nicotinamide]
10000	Cc1nc(C(F)(F)F)ccc1C(=O)Nc1ccc(Cl)c(-c2cccnc2)c1 [N-(4-chloro-3-(pyridin-3-yl)phenyl)-2-methyl-6-(trifluoromethyl)nicotinamide]
150	Cc1nc(C(F)(F)F)ccc1C(=O)Nc1ccc(Cl)c(-c2nc3c(n2C)CCCC3)c1 [N-(4-chloro-3-(1-methyl-4,5,6,7-tetrahydro-1H-benzo[d]imidazol-2-yl)phenyl)-2-methyl-6-(trifluoromethyl)nicotinamide]
110	O=C(Nc1ccc(Cl)c(-c2ccccn2)c1)c1ccccc1Cl [2-chloro-N-(4-chloro-3-(pyridin-2-yl)phenyl)benzamide]
